Assay results reported in patent publication US10131653B2, “Heterocyclic compound” (TAKEDA PHARMACEUTICAL COMPANY LIMITED, priority 2015, dated 2018).
Where a name gives a salt, the structure may show the parent alone.

Experiments:
[1] = molecular target: T1, human OX1 receptor (Homo sapiens, UniProt O43613); assay: Measurement of orexin receptor antagonistic activity (calcium fluorescence, FLIPRtetra); assay type: cell-based; details: 10 μM test compound, CHO cells expressing human OX1 receptor, OX-A 1 nM; for inhibition at 10 µM: CHO, read-out: Human Orexin1 receptor inhibition (at 10 μM)
T1 construct: expressed in transfected cells; host or cells: CHO cells
T1 sequence (O43613 1-425): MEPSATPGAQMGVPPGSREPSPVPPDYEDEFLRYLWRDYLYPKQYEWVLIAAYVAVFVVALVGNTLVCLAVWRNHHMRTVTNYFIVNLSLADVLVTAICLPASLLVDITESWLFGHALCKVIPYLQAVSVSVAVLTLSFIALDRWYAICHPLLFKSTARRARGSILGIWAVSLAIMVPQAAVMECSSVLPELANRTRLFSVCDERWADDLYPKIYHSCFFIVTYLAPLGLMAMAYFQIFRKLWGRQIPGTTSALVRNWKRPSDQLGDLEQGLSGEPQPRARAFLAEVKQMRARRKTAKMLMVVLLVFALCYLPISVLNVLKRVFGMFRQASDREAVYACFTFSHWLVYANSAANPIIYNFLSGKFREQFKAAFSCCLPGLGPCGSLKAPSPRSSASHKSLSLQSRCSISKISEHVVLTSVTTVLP
Experimental: (§1) Measurement of Orexin Receptor Antagonistic Activity
(§2) CHO cells forcibly expressing human OX1 receptor or human OX2 receptor were seeded in each well of 384 well black transparent bottom plate (BD Falcon) at 7,500 cells/well, and cultured for one day in a 5% CO2 incubator at 37° C. […] The plate was stood for 30 min in a 5% CO2 incubator at 37° C., and further stood at room temperature for 30 min. A test compound prepared by diluting with assay buffer B (HBSS, 20 mM HEPES, 0.1% BSA) was added at 10 μL/well, and then OX-A (OX1 receptor, final concentration; 1 nM) or OX-A (OX2 receptor, final concentration; 0.3 nM) was added at 10 μL/well, and the fluorescence value was measured by FLIPRtetra (Molecular Devices) every one sec for 2 min.

[2] = molecular target: T2, human OX2 receptor (Homo sapiens, UniProt O43614); assay: as above; assay type: cell-based; details: 10 μM test compound, CHO cells expressing human OX2 receptor, OX-A 0.3 nM; for inhibition at 10 µM: CHO, read-out: Human Orexin2 receptor inhibition (at 10 μM)
T2 construct: expressed in transfected cells; host or cells: CHO cells
T2 sequence (O43614 1-444): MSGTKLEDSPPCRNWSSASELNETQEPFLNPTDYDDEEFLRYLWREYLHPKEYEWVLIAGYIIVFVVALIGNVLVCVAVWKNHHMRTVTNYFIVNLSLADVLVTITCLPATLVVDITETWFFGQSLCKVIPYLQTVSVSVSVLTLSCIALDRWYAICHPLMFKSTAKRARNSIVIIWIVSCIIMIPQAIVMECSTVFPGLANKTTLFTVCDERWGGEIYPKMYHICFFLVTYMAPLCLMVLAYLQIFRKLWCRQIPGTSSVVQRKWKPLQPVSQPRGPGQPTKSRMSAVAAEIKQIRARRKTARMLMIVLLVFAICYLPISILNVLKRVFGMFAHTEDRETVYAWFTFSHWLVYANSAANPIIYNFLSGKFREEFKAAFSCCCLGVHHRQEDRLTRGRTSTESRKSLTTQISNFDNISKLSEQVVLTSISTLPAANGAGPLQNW
Experimental: as §1, §2

In the case of Cc1cc(N2CCN(C(=O)c3cc(Cl)ccc3-n3nccn3)CC(C)O2)nc(C)n1 (stereo in doubt) [Example 212, (5-chloro-2-(2H-1,2,3-triazol-2-yl)phenyl)((7R)-2-(2,6-dimethylpyrimidin-4-yl)-7-methyl-1,2,5-oxadiazepan-5-yl)methanone], the “Human Orexin1 receptor inhibition (at 10 μM)” value [1] is reported as 16% and the “Human Orexin2 receptor inhibition (at 10 μM)” value [2] is reported as 99%.

With Cc1nc(N2CCN(C(=O)c3cc(Cl)ccc3-n3nccn3)C[C@H](C)O2)cc(C(F)(F)F)n1 [Example 3, (5-chloro-2-(2H-1,2,3-triazol-2-yl)phenyl)((7S)-7-methyl-2-(2-methyl-6-(trifluoromethyl)pyrimidin-4-yl)-1,2,5-oxadiazepan-5-yl)methanone] the inhibition at 10 µM [1] was 87% and the inhibition at 10 µM [2] was 100%.

In the case of Cc1ccc(-n2nccn2)c(C(=O)N2CCON(c3cc(C)nc(C)n3)CC2)c1 [Example 4, (2-(2,6-dimethylpyrimidin-4-yl)-1,2,5-oxadiazepan-5-yl)(5-methyl-2-(2H-1,2,3-triazol-2-yl)phenyl)methanone], the inhibition at 10 µM [1] is reported as 62% and the inhibition at 10 µM [2] is reported as 96%.

Cc1cc(N2C[C@H](C)N(C(=O)c3ccccc3-c3nccs3)[C@H](C)CO2)nc(C)n1 [Example 5, ((4S,6R)-2-(2,6-dimethylpyrimidin-4-yl)-4,6-dimethyl-1,2,5-oxadiazepan-5-yl)(2-(1,3-thiazol-2-yl)phenyl)methanone] showed an inhibition at 10 µM [1] of 101% and an inhibition at 10 µM [2] of 99%.

Compound Cc1ccc(-n2nccn2)c(C(=O)N2CCN(c3cc(C)nc(C)n3)OC[C@H]2C)c1 [Example 6, ((6R)-2-(2,6-dimethylpyrimidin-4-yl)-6-methyl-1,2,5-oxadiazepan-5-yl)(5-methyl-2-(2H-1,2,3-triazol-2-yl)phenyl)methanone] has an inhibition at 10 µM [1] of 88% and an inhibition at 10 µM [2] of 96%.

In the case of Cc1ccc(-n2nccn2)c(C(=O)N2CCON(c3ncc(C(F)(F)F)cn3)CC2)c1 [Example 9], the inhibition at 10 µM [1] is reported as 91% and the inhibition at 10 µM [2] is reported as 74%.

In the case of Cc1ccc(-n2nccn2)c(C(=O)N2CCON(c3ncc(C4CC4)cn3)CC2)c1 [Example 10, (2-(5-cyclopropylpyrimidin-2-yl)-1,2,5-oxadiazepan-5-yl)(5-methyl-2-(2H-1,2,3-triazol-2-yl)phenyl)methanone], the inhibition at 10 µM [1] is reported as 93% and the inhibition at 10 µM [2] is reported as 94%.

Cc1ccc(-n2nccn2)c(C(=O)N2CCON(c3nc(C)cc(-c4ccc(F)cc4)n3)CC2)c1 [Example 12, (2-(4-(4-fluorophenyl)-6-methylpyrimidin-2-yl)-1,2,5-oxadiazepan-5-yl)(5-methyl-2-(2H-1,2,3-triazol-2-yl)phenyl)methanone] gave an inhibition at 10 µM [1] of 101% and an inhibition at 10 µM [2] of 93%.

Cc1cc(N2CCN(C(=O)c3cc(F)ccc3-n3nccn3)CCO2)nc(C)n1 [Example 14, (2-(2,6-dimethylpyrimidin-4-yl)-1,2,5-oxadiazepan-5-yl)(5-fluoro-2-(2H-1,2,3-triazol-2-yl)phenyl)methanone] showed an inhibition at 10 µM [1] of 23% and an inhibition at 10 µM [2] of 91%.

With Cc1cc(N2CCN(C(=O)c3cc(F)c(F)cc3-n3nccn3)CCO2)nc(C)n1 [Example 15, (4,5-difluoro-2-(2H-1,2,3-triazol-2-yl)phenyl) (2-(2,6-dimethylpyrimidin-4-yl)-1,2,5-oxadiazepan-5-yl)methanone] the inhibition at 10 µM [1] was 5% and the inhibition at 10 µM [2] was 102%.

Cc1cc(N2CCN(C(=O)c3c(F)cccc3-n3nccn3)CCO2)nc(C)n1 [Example 16, (2-(2,6-dimethylpyrimidin-4-yl)-1,2,5-oxadiazepan-5-yl) (2-fluoro-6-(2H-1,2,3-triazol-2-yl)phenyl)methanone hydrochloride] was tested, and the inhibition at 10 µM [1] was 21% and the inhibition at 10 µM [2] was 98%.

Cc1cc(N2CCN(C(=O)c3ccccc3-c3ncc(F)s3)CCO2)nc(C)n1 [Example 17, (2-(2,6-dimethylpyrimidin-4-yl)-1,2,5-oxadiazepan-5-yl) (2-(5-fluoro-1,3-thiazol-2-yl)phenyl)methanone] gave an inhibition at 10 µM [1] of 41% and an inhibition at 10 µM [2] of 102%.

With Cc1cc(N2CCN(C(=O)c3ccccc3-c3csc(C)n3)CCO2)nc(C)n1 [Example 19, (2-(2,6-dimethylpyrimidin-4-yl)-1,2,5-oxadiazepan-5-yl) (2-(2-methyl-1,3-thiazol-4-yl)phenyl)methanone] the inhibition at 10 µM [1] was 36% and the inhibition at 10 µM [2] was 100%.

Cc1cc(N2CCN(C(=O)c3ccccc3-n3nccn3)CCO2)nc(C)n1 [Example 20, (2-(2,6-dimethylpyrimidin-4-yl)-1,2,5-oxadiazepan-5-yl) (2-(2H-1,2,3-triazol-2-yl)phenyl)methanone] gave an inhibition at 10 µM [1] of 25% and an inhibition at 10 µM [2] of 101%.

Cc1cc(N2CCN(C(=O)c3ccccc3C3CCC3)CCO2)nc(C)n1 [Example 21, (2-cyclobutylphenyl) (2-(2,6-dimethylpyrimidin-4-yl)-1,2,5-oxadiazepan-5-yl)methanone] showed an inhibition at 10 µM [1] of 19% and an inhibition at 10 µM [2] of 99%.

In the case of Cc1cc(N2CCN(C(=O)c3cc(Cl)ccc3C3CCC3)CCO2)nc(C)n1 [Example 22, (5-chloro-2-cyclobutylphenyl) (2-(2,6-dimethylpyrimidin-4-yl)-1,2,5-oxadiazepan-5-yl)methanone], the inhibition at 10 µM [1] is reported as 54% and the inhibition at 10 µM [2] is reported as 99%.

Cc1cc(N2CCN(C(=O)c3ccccc3-c3cccs3)CCO2)nc(C)n1 [Example 23, (2-(2,6-dimethylpyrimidin-4-yl)-1,2,5-oxadiazepan-5-yl) (2-(2-thienyl)phenyl)methanone hydrochloride] was tested, and the inhibition at 10 µM [1] was 88% and the inhibition at 10 µM [2] was 101%.

Cc1cc(N2CCN(C(=O)c3ccccc3-c3nc(C)no3)CCO2)nc(C)n1 [Example 24, (2-(2,6-dimethyl-pyrimidin-4-yl)-1,2,5-oxadiazepan-5-yl) (2-(3-methyl-1,2,4-oxadiazol-5-yl)phenyl) methanone] gave an inhibition at 10 µM [1] of 13% and an inhibition at 10 µM [2] of 99%.

Cc1cc(N2CCN(C(=O)c3cc(Cl)ccc3-n3nccn3)CCO2)nc(C)n1 [Example 25, (5-chloro-2-(2H-1,2,3-triazol-2-yl)phenyl) (2-(2,6-dimethyl-pyrimidin-4-yl)-1,2,5-oxadiazepan-5-yl)methanone] was tested, and the inhibition at 10 µM [1] was 61% and the inhibition at 10 µM [2] was 98%.

Cc1cc(N2CCN(C(=O)c3cc(Br)ccc3-n3nccn3)CCO2)nc(C)n1 [Example 26, (5-bromo-2-(2H-1,2,3-triazol-2-yl)phenyl) (2-(2,6-dimethyl-pyrimidin-4-yl)-1,2,5-oxadiazepan-5-yl)methanone] showed an inhibition at 10 µM [1] of 83% and an inhibition at 10 µM [2] of 100%.

Work on Cc1cc(N2CCN(C(=O)c3cc(F)ccc3-c3ncccn3)CCO2)nc(C)n1 [Example 27, (2-(2,6-dimethyl-pyrimidin-4-yl)-1,2,5-oxadiazepan-5-yl) (5-fluoro-2-(pyrimidin-2-yl)phenyl) methanone] yielded an inhibition at 10 µM [1] of 45% and an inhibition at 10 µM [2] of 102%.

Cc1cc(N2CCN(C(=O)c3cc(F)ccc3-n3cccn3)CCO2)nc(C)n1 [Example 28, (2-(2,6-dimethyl-pyrimidin-4-yl)-1,2,5-oxadiazepan-5-yl) (5-fluoro-2-(1H-pyrazol-1-yl)phenyl) methanone] was tested, and the inhibition at 10 µM [1] was 23% and the inhibition at 10 µM [2] was 74%.

In the case of Cc1cc(N2CCN(C(=O)c3ccccc3-c3nccs3)CCO2)nc(C)n1 [Example 29, (2-(2,6-dimethyl-pyrimidin-4-yl)-1,2,5-oxadiazepan-5-yl) (2-(1,3-thiazol-2-yl)phenyl) methanone], the inhibition at 10 µM [1] is reported as 88% and the inhibition at 10 µM [2] is reported as 100%.

Work on Cc1cc(N2CCN(C(=O)c3ccccc3-n3cccn3)CCO2)nc(C)n1 [Example 30, (2-(2,6-dimethyl-pyrimidin-4-yl)-1,2,5-oxadiazepan-5-yl) (2-(1H-pyrazol-1-yl)phenyl) methanone] yielded an inhibition at 10 µM [1] of 1% and an inhibition at 10 µM [2] of 101%.

Cc1cc(C)nc(N2CCN(C(=O)c3ccc(Cl)cc3)CCO2)n1 [Example 40, (4-chlorophenyl)(2-(4,6-dimethylpyrimidin-2-yl)-1,2,5-oxadiazepan-5-yl)methanone] showed an inhibition at 10 µM [2] of 4%.
